In paper PMC4215169 (Nature communications, 2014) one finds IC50 data, which are given here for 2 compounds.

One assay has as its system HCV protease. To be noted: cited from earlier work.
The next assay has as its target wild-type HCV protease (Hepatitis C virus genotype 1a, UniProt P27958). Format: biochemical.
Another assay addresses HCV protease D168Y (Hepatitis C virus genotype 1a, UniProt P27958, D1194Y). In words: biochemical.
For a further assay, the target named is HCV protease D168E (Hepatitis C virus genotype 1a, UniProt P27958, D1194E). In words: biochemical.

Broadly, the IC50 is the concentration that inhibits the measured activity by half. On to `CC(C)(C)OC(=O)N[C@H]1CCCCC/C=C\[C@@H]2C[C@@]2(C(=O)NS(=O)(=O)C2CC2)NC(=O)[C@@H]2C[C@@H](OC(=O)N3Cc4cccc(F)c4C3)CN2C1=O` [danoprevir], for which the IC50 in the assay with HCV protease was approximately 0.3 nM; against wild-type HCV protease it was 1.3 ± 0.1 nM; at HCV protease D168Y, 34.4 ± 2.8 nM; at HCV protease D168E, 38.9 ± 2.4 nM.
Regarding `C=C[C@@H]1C[C@]1(NC(=O)[C@@H]1C[C@@H](Oc2ncc(OC)c3ccc(Cl)cc23)CN1C(=O)[C@@H](NC(=O)OC(C)(C)C)C(C)(C)C)C(=O)NS(=O)(=O)C1CC1` [asunaprevir], the IC50 in the assay on HCV protease was approximately 1 nM.
